The target of test [1] is T1, mGluR5 (Rattus norvegicus, UniProt P31424). Kind of test: mGluR5 radioligand displacement binding assay with [3H]MPEP. The following applies: for decrease in binding affinity compared to the phenyl analogue: 17 v. 22, 18 v. 25. A general note: Displacement assays read how much labelled ligand stays bound in the presence of the test substance.
In test [2] the target is T1, mGluR5. Kind of test: mGluR5 functional assay, calcium fluorescence. In kind it is cell-based.
Setting [3] is: read-out: mGluR5 binding affinity Ki±SEM, [3H]MPEP, rat brain membranes or HEK293-T cells transfected with cloned rat mGluR5.
Where [4] appears, read: read-out: mGluR5 function (Ca+2 flux) IC50±SEM, inhibition of glutamate-induced calcium mobilization.

Entries after “also recorded” stand apart in the source; their conditions may differ. Read-outs that look alike come from different tables or passages of the source.

A word on the Ki: it is the dissociation constant of the complex between target and ligand, obtained from inhibition or displacement. The IC50 is the concentration that inhibits the measured activity by half.

T1 sequence (P31424 21-1203): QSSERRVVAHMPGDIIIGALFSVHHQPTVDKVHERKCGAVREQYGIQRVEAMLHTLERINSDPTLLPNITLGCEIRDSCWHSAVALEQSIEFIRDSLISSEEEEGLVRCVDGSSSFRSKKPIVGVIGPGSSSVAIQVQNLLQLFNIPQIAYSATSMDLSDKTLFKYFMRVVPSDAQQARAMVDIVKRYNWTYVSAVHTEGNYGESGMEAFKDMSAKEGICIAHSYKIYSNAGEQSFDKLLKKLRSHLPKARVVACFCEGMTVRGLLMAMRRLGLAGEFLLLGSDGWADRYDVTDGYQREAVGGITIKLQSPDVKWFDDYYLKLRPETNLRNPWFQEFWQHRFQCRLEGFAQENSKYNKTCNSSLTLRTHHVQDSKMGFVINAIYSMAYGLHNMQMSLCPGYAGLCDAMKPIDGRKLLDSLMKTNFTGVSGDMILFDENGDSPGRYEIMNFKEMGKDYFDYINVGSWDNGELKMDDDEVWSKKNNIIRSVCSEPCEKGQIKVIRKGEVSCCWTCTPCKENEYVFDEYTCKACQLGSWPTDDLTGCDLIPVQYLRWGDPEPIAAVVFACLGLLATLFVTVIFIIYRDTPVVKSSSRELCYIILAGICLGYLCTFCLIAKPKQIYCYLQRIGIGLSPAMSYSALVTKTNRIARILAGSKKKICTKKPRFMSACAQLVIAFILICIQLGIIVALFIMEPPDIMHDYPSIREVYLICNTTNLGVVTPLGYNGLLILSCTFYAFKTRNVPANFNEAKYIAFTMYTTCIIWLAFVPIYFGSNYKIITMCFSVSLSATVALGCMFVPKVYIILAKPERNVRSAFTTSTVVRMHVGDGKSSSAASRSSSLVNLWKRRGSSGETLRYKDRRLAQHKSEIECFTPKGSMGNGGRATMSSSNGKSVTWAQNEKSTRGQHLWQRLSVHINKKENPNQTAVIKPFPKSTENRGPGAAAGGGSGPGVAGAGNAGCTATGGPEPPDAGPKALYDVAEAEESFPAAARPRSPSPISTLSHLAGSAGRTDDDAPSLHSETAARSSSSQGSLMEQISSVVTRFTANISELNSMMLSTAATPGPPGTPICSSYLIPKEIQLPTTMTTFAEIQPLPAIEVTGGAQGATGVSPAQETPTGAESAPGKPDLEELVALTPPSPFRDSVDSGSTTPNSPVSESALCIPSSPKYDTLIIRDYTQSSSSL

As to “2-(Pyridin-3-yl)-4-(2-methylbenzo[d]thiazol-5-yl)benzonitrile [compound 26]”, the “activity at mGluR5 in words” value in test [1] was “completely inactive”. Moreover, in test [1] (setting [3]), the Ki is > 10000 nM. The IC50 in test [2] (setting [4]) was > 10000 nM.

In the case of “2-Phenyl-4-(2-methylbenzo[d]thiazol-5-yl)benzonitrile [compound 25]”, in test [1] (25 v. 4), the “increase in binding affinity compared to parent structure 4” value was ~ 4 fold. Besides, the Ki in test [1] (setting [3]) turned out to be 483 ± 98 nM. Besides, the IC50 in test [2] (setting [4]) is 6890 ± 1250 nM.

On to `Cc1ccc2ccc(-c3ccc(OCc4ccccc4)c(C#N)c3)cc2n1` [compound 17, 2-Benzoxy-5-(2-methylquinolin-7-yl)benzonitrile], for which, in test [1], the “decrease in binding affinity compared to the phenyl analogue” value is ~ 10 fold.

As for `Cc1ccc2ccc(-c3cncc(C#N)c3)cc2n1` [compound 30, 5-(2-Methylquinolin-7-yl)nicotinonitrile], the Ki in test [1] stood at 100 ± 21 nM. Also, the IC50 in test [2] was determined as 68 ± 5.3 nM.

Consider `Cc1nc2cc(-c3ccc(OCc4ccccc4)c(C#N)c3)ccc2s1` [compound 18, 2-Benzoxy-5-(2-methylbenzo[d]thiazol-5-yl)benzonitrile], for which the “decrease in binding affinity compared to the phenyl analogue” value in test [1] is 15 fold.

Turning to `Cc1ccc2ccc(-c3cnc(Cl)c(C#N)c3)cc2n1` [compound 31, 2-Chloro-5-(2-methylquinolin-7-yl)nicotinonitrile], the “mode of mGluR5 antagonism (full or partial)” value in test [2] (glutamate-induced mGluR5 activity) is given as “partial antagonist activity; also recorded: weak partial antagonist”.

For the origin of these results see paper PMC2871681 (Bioorganic & medicinal chemistry, 2010).
